This is an account of results in patent publication US7183061B2, “Method of expressing Heliothis ecdysone receptor fusion protein” (Syngenta Limited, priority 1996, dated 2007).

The test system of this assay is glucocorticoid receptor. The assay can be described thus: Maize protoplast GUS reporter assay with pMF6HR1PAT (GR) and p221.9GRE6. The following applies: maize protoplasts, reporter plus effector, concentration not given. Type of assay: cell-based, Human. An excerpt: The glucocorticoid receptor DNA for the Maize transient expression construct was produced via the polymerase chain reaction (PCR) of Human Fibrosarcoma cDNA (HT1080 cell line, ATCC#CC1121) library (Clontech see Hollenberg et al., 1985). The PCR approach taken was to amplify the 2.7 kb fragment encoding the glucocorticoid receptor in two segments. The first segment entails the N-terminal end up to and including the DNA binding domain while the second fragment begins with the hinge region (amino acid 500) thought to the end of the reading frame. Thus, the PCR primer for the N-terminal end segment was designed to contain an EcoRI site and the Kozak consensus sequence for translation initiation: GREcoRI 5′ […] 3′ (SEQ ID NO: 32).
The 2.7 kb EcoRI fragment was subcloned into the vector pMF6PAT EcoRI resulting in pMF6HGIPAT (FIG. 10).
Two reporter plasmids were made by inserting the into p221.9 or p221.10 BamHI/HindIII vectors two pairs or oligonucleotides containing six copies of the glucocorticoid response element (GRE). […]
Protoplasts were isolated from a maize suspension culture derived from BE70×A188 embryogenic callus material, which was maintained by subculturing twice weekly in MS0.5mod. […] The pellet was resuspended in wash buffer and the protoplasts were counted. […] Protein concentrations of tissue homogenates were determined by the Bio-Rad protein assay (Bradford, 1976). […]

The structures appear in SMILES notation.

As to `CC(C)CC[C@@H](O)[C@](C)(O)[C@H]1CC[C@@]2(O)C3=CC(=O)[C@]4(O)C[C@@H](O)[C@@H](O)C[C@]4(C)[C@H]3[C@H](O)C[C@]12C` [Muristerone A], the “induced levels of expression” value was “does not lead to induced levels of expression”.
